According to PMC10525585, “Evaluation of the Antibacterial Effect of Aurone-Derived Triazoles on Staphylococcus aureus” (Antibiotics, 2023):
Several values for one entry are separate records, joined by “and”; a condition that tells them apart may be missing. Identical values can stand only once. Like-named read-outs stand apart in the source and are kept apart here. Values belong to the compound of their own block, whether it stands above or below them.

Experiments:
[1] = system: methicillin-resistant S. aureus ATCC 43300 (MRSA); test: Antibacterial assay (broth microdilution, PrestoBlue); type: cell-based, Staphylococcus aureus; details: for MRSA inhibition (100µM) / IC50: Table S1; for IC50: read-out: IC50 MRSA
Protocol: (§1) MRSA strain ATCC 43300 and MSSA strain S. aureus ATCC 29213 were grown on Tryptic Soy Agar (TSA) plates. Before use, an isolated colony was transferred from the TSA plate into Tryptic Soy Broth (TSB) and incubated 18–24 h in a humidified incubator at 37 °C. To adjust for a standard concentration of bacteria, the turbidity of the culture was measured at 600 nm, and its optical density (OD600) adjusted to be in the range 0.08–0.12 which equates to a concentration of approximately 1 × 10^8 CFU/mL. This suspension was diluted 1:20 in TSB. […] MRSA strain S. aureus ATCC 43300 and MSSA strain S. aureus ATCC 29213 were used for all testing in this study.
(§2) The assay for anti-Staphylococcal activity of AT compounds was prepared in 96-well transparent, U-bottom plates. A series of 2-fold dilutions of AT concentrations was tested in triplicate, with each well containing 10 µL of prepared bacterium and 90 µL of AT mixture in CAMHB. […] Blank wells with only CAMHB, a negative control well with 10 µL of bacterium solution mixed into 90 µL CAMHB, a vehicle control well with bacteria mixed into 1% DMSO in CAMBH, and a positive cell death control with vancomycin (1 µL of stock 2 mg/mL solution in 89 µL CAMHB with 10 µL of bacteria) were included. The plate was incubated for 18–24 h at 37 °C in a humidified incubator. Before measurement, PrestoBlue^TM dye (Invitrogen, Carlsbad, CA, USA) was added (10 µL per well) and incubated for 1 h with aluminum foil covering the plate. A CLARIOstar® (BMG LABTECH, Cary, NC, USA) multi-mode plate reader was used to measure the fluorescence at wavelengths of 560 nm for excitation and 590 nm for emission. Inhibitory concentration (IC50) values were defined as half inhibitory concentration and were computed using GraphPad Prism version 9.1 software.

[2] = system: HepG2 (ATCC HB-8065) cells; test: Cytotoxicity assay (PrestoBlue); type: cell-based, Human
[3] = system: methicillin-sensitive S. aureus ATCC 29213 (MSSA); test: microbe, parasite or virus in culture; details: Table S1; for IC50: read-out: IC50 MSSA
Protocol: as §1, §2

HeLa (ATCC CCL-2) cells = test: Cytotoxicity assay (PrestoBlue)
Protocol: Human HeLa epithelial (ATCC CCL-2) and HepG2 liver epithelial (ATCC HB-8065) cell lines were used to determine toxicity of AT compounds for mammalian cells. The cells were grown in a complete culture medium of RPMI 1640 with 10% heat-inactivated fetal bovine serum (FBS) at 37 °C in 5% CO2 (95% room air) in a humidified incubator. Before use, attached cell monolayers, which had reached at least 90% confluency, were detached by trypsinization with trypsin-EDTA (0.25%) and resuspension in fresh complete culture media. For experiments, the stock concentration of 1 × 10^5 cells/mL (to achieve a final 1 × 10^4 cells/well concentration) was achieved by counting the trypsinized cells and adjusting to their final concentration for assays.
HeLa or HepG2 cells were pre-seeded into a 96-well transparent, flat bottom plate by adding a volume of 100 µL stock cell concentration (1 × 10^5 cells/mL) in complete culture media to each well. The plate was incubated overnight at 37 °C in a 5% CO2 (95% room air) humidified incubator. After the incubation and before mixing in the AT compounds, a 100 µL volume of fresh complete culture media was added to the pre-seeded wells. The 2-fold dilutions of AT compounds in triplicates were prepared on a separate 96-well plate. Once the dilution plate was prepared, dilutions were transferred into the pre-seeded plate to achieve the same concentrations of ATs as for the inhibition assay described above. The final inoculated plate was then returned to the 5% CO2 (95% room air) humidified incubator for an additional 24 h of incubation with the diluted ATs. Controls were blank wells containing only media, wells with cells and DMSO in complete culture media, and wells with cells and complete culture media only. Measurement of toxicity was analogous to the inhibition assay except that 20 µL of PrestoBlue^TM was used and the incubation was 3–6 h before reading with the plate-reader. Cytotoxicity concentration (CC50) was defined as the concentration where half of the cells remained viable and was computed using GraphPad Prism.

IC50 [1]: 31.2 µM | IC50 [3]: 12.5 µM
SMILES: Cc1ccc(-c2n[nH]nc2C(=O)c2cccc(Cl)c2O)cc1 [AT123]
MRSA inhibition (100µM) [1]: 23.62% | CC50 [2]: 58.7 µM | MSSA inhibition (100µM) [3]: 99.45% | CC50 (HeLa (ATCC CCL-2) cells; read-out: CC50 HeLa, Table S1): 14.4 µM

SMILES: O=C(c1ccccc1O)c1n[nH]nc1-c1cccc([N+](=O)[O-])c1 [AT104]
MRSA inhibition (100µM) [1]: 48.19%

SMILES: N#Cc1ccc(-c2n[nH]nc2C(=O)c2cc(F)ccc2O)cc1 [AT126]
MRSA inhibition (100µM) [1]: 75.06% | MSSA inhibition (100µM) [3]: 64.72%

SMILES: Cc1cc(O)c(C(=O)c2n[nH]nc2-c2cccc([N+](=O)[O-])c2)cc1C [AT130]
MRSA inhibition (100µM) [1]: 43.97% | MSSA inhibition (100µM) [3]: 58.75%

SMILES: O=C(c1ccccc1O)c1n[nH]nc1-c1ccccc1Cl [AT108]
MRSA inhibition (100µM) [1]: 8.46% | MSSA inhibition (100µM) [3]: 30.63%

IC50 [1]: 38.8 µM
SMILES: N#Cc1ccc(-c2n[nH]nc2C(=O)c2ccccc2O)cc1 [AT100]
MRSA inhibition (100µM) [1]: 96.47% and > 96% | CC50 [2]: 70.7 µM | MSSA inhibition (100µM) [3]: 58.77% | CC50 (HeLa (ATCC CCL-2) cells; read-out: CC50 HeLa, Table S1): 19.1 µM

SMILES: Cc1cccc(C(=O)c2n[nH]nc2-c2cccc([N+](=O)[O-])c2)c1O [AT132]
MRSA inhibition (100µM) [1]: 57.99% | MSSA inhibition (100µM) [3]: 83.03%

SMILES: O=C(c1ccccc1O)c1n[nH]nc1-c1ccsc1 [AT134]
MRSA inhibition (100µM) [1]: 0% | MSSA inhibition (100µM) [3]: 10.83%

IC50 [1]: 4.18 µM | IC50 [3]: 6.03 µM
SMILES: N#Cc1ccc(-c2n[nH]nc2C(=O)c2ccc(Cl)cc2O)cc1 [AT120]
MRSA inhibition (100µM) [1]: 99.51% | CC50 [2]: 38.1 µM | MSSA inhibition (100µM) [3]: 71.82% | CC50 (HeLa (ATCC CCL-2) cells): 17.2 µM

IC50 [1]: 13.4 µM
SMILES: N#Cc1ccc(-c2n[nH]nc2C(=O)c2cccc(Br)c2O)cc1 [AT124]
MRSA inhibition (100µM) [1]: 32.16% | CC50 [2]: 3.85 µM | MSSA inhibition (100µM) [3]: 43.36%

SMILES: N#Cc1ccc(-c2n[nH]nc2C(=O)c2cccc(Cl)c2O)cc1 [AT119]
MRSA inhibition (100µM) [1]: 46.21% | MSSA inhibition (100µM) [3]: 64.36%

SMILES: O=C(c1ccccc1O)c1n[nH]nc1-c1ccc(I)cc1 [AT113]
MRSA inhibition (100µM) [1]: 43.81% | MSSA inhibition (100µM) [3]: 85.79%

SMILES: O=C(c1ccccc1O)c1n[nH]nc1-c1ccc(O)cc1 [AT117]
MRSA inhibition (100µM) [1]: 19.39% | MSSA inhibition (100µM) [3]: 0%

SMILES: Cc1ccc(O)c(C(=O)c2n[nH]nc2-c2cccc([N+](=O)[O-])c2)c1 [AT131]
MRSA inhibition (100µM) [1]: 0% | MSSA inhibition (100µM) [3]: 21.31%

SMILES: CC(=O)Nc1ccc(-c2n[nH]nc2C(=O)c2ccccc2O)cc1 [AT136]
MRSA inhibition (100µM) [1]: 0% | MSSA inhibition (100µM) [3]: 0%

SMILES: Cc1ccc(-c2n[nH]nc2C(=O)c2cc(C)c(C)cc2O)cc1 [AT133]
MRSA inhibition (100µM) [1]: 58.84% | MSSA inhibition (100µM) [3]: 88.47%

IC50 [1]: 3.98 µM
SMILES: O=C(c1ccccc1O)c1n[nH]nc1-c1ccc([N+](=O)[O-])cc1 [AT103]
MRSA inhibition (100µM) [1]: 88.53% | CC50 [2]: 2.65 µM | MSSA inhibition (100µM) [3]: 81.57%

SMILES: O=C(c1ccccc1O)c1n[nH]nc1-c1cccc(Cl)c1 [AT107]
MRSA inhibition (100µM) [1]: 56.47% | MSSA inhibition (100µM) [3]: 50.24%

SMILES: N#Cc1ccccc1-c1n[nH]nc1C(=O)c1ccccc1O [AT102]
MRSA inhibition (100µM) [1]: 35.77% | MSSA inhibition (100µM) [3]: 0%

SMILES: N#Cc1ccc(-c2n[nH]nc2C(=O)c2c(O)cccc2Cl)cc1 [AT122]
MRSA inhibition (100µM) [1]: 18.51% | MSSA inhibition (100µM) [3]: 1.01%

SMILES: O=C(c1ccccc1O)c1n[nH]nc1-c1cccs1 [AT135]
MRSA inhibition (100µM) [1]: 5.42% | decrease of anti-MRSA activity ([1]; compared with AT137 (no bromine on the thiophene ring)): over 15 fold | MSSA inhibition (100µM) [3]: 46.76%
